Experimental data published in patent publication US4105785A, “Anti-depressive 2-methyl-4-[(3'-dimethylamino)propylidine]-9,10-dihydrobenzo [4,5]cyclohepta[1,2b]furan compounds” (priority 1976, dated 1978).

Legend:
[1] = system: reserpine-induced hypothermia; test: Antagonism to reserpine-induced hypothermia; type: in vivo; conditions: mouse; for HYPOTHERMIA (Reserpine), maximal rise in temperature: reserpine 1 mg/kg IV
Protocol: (2) Antagonism to reserpine-induced hypothermia Administration of reserpine to the mouse (1 mg/kg IV) results in hypothermia which may be antagonized by certain anti-depressants. The values given in table I correspond, for the doses given, to the maximal rise in temperature. [Boissier et al., Therapie 1966, XXI, 109-117]

[2] = system: heat stimulus (hot plate); test: Analgesic activity, hot plate method; type: in vivo; conditions: mouse; for ED50: PO, 50% of animals exposed to heat stimulus longer than 5 seconds, read-out: ANALGESIA ED 50
Protocol: (7) Analgesic activity This was assessed on the mouse by the hot plate method. […] [Eddy N. B. and Leimbach D. J., Pharmacol. Exp. Ther., 107, 385-393 (1953)]

spontaneous motility = test: Spontaneous motility in the mouse; type: in vivo; conditions: 1 hour after administration, 10 minutes
Protocol: (6) Spontaneous motility in the mouse One hour after the administration of the product to be studied, the animals are placed by groups of two in a circular corridor swept by beams of infrared light making it possible to count their movements from one place to another. The number of movements from one place to another is counted for 10 minutes and compared with the score obtained by a control group.

[3] = system: stereotypies induced by amphetamine; test: Potentialization of stereotypies induced by amphetamine in the rat; type: in vivo; conditions: D-amphetamine 4 mg/kg IP
Protocol: (4) Potentialization of stereotypies induced by amphetamine in the rat.
The administration of D-amphetamine to the rat (4 mg/kg IP) results in stereotyped behaviour which can be potentialized or antogonized by various products.
The values given in table I show the percentage of potentialization. [Lapin I. P. and Schelkunov E. L. (1963) Second International Pharmacological Meeting 1, 205 Pergamon Press].

[4] = system: symptoms of trembling induced by oxotremorine; test: Antioxotremoric action in the mouse; type: in vivo; conditions: 100 mg/kg PO, oxotremorine 2 mg/kg IP
[5] = system: catalepsy induced by prochlorperazine; test: antagonism to catalepsy induced by prochlorperazine in the rat; type: in vivo
Excerpt: (3) antagonism to catalepsy induced by prochlorperazine in the rat. Injection of prochlorperazine in the rat induces a cataleptic state which is more or less inhibited by antidepressants. The values given in table I show percentages of inhibition. [Boissier J. R. and Simon P., Therapie (1963), 18, 1257-77]

[6] = acute toxicity by the oral way in the mouse; conditions: in vivo; for LD50: PO; for mortality: 600 mg/kg PO, read-out: acute toxicity, deaths
Protocol: (1) acute toxicity by the oral way in the mouse
This was evaluated in the mouse by the method of Behrens and Karber [Arch. Exp. Path. Pharm. 177, 379 (1935)]

Structure (SMILES)	HYPOTHERMIA (Reserpine), maximal rise in temperature ([1]; 50 mg/kg PO)	ED50 [2] [mg/kg]	SPONTANEOUS MOTILITY, percentage of decrease in number of movements (spontaneous motility; 80 mg/kg PO) [%]	STEREOTYPIES (Amphetamine), percentage of potentialization ([3]; 20 mg/kg PO)	ANTI-OXOTREMORIC ACTION, percentage of inhibition of trembling symptoms [4] [%]	CATALEPSY (Prochlorperazine), percentage of inhibition ([5]; 20 mg/kg IP)	LD50 [6] [mg/kg]	HYPOTHERMIA (Reserpine), maximal rise in temperature ([1]; 25 mg/kg PO)	SPONTANEOUS MOTILITY, percentage of decrease in number of movements (spontaneous motility; 100 mg/kg PO) [%]	STEREOTYPIES (Amphetamine), percentage of potentialization ([3]; 5 mg/kg IP)	mortality [6] [%]	action on reserpine-induced hypothermy (in words) [1]	ANALGESIA (result in words) [2]	CATALEPSY (Prochlorperazine), percentage of inhibition ([5]; 40 mg/kg IP) [%]	HYPOTHERMIA (Reserpine), maximal rise in temperature ([1]; 12.5 mg/kg PO)
CN(C)CCC=C1c2ccccc2CCc2ccccc21 [AMITRIPTYLINE, reference compound]	+2.5 °C	16	80	+65%	-100	-33,3%	250	–	–	–	–	–	–	–	–
Cc1ccc2c(c1)C(=CCCN(C)C)c1cc(C)oc1CC2 [compound no. 2, dimethyl-2,6 [(dimethylamino-3')]-propylidene-4 dihydro-9,10 benzo [4,5] cyclohepta [1,2-b] furan]	–	47	–	–	-30	-44.4%	–	+0.6 °C	84.4	+141%	10	–	–	–	–
Cc1cc2c(o1)CCc1ccccc1C2=CCCN(C)C [compound no. 3, methyl-2 [(dimethylamino-3')-propylidene]-4 dihydro-9,10 benzo-[4,5] cyclohepta [1,2-b] furan]	+3 °C	–	–	–	-75	–	300	–	84	+9,2%	–	significant action	non specific	-33.3	–
Cc1ccc2c(c1)CCc1oc(C)cc1C2=CCCN(C)C [compound no. 1, dimethyl-2,7 [(dimethylamino-3')propylidene]-4 dihydro-9,10 benzo-[4,5] cyclohepta [1,2-b] furan]	–	48	–	–	-35	-26.1%	–	–	95.3	+105%	10	–	–	–	+1 °C
